According to ChEMBL document CHEMBL3244333, “2-Acetylpyridine thiosemicarbazones. 2. N4,N4-Disubstituted derivatives as potential antimalarial agents” (J Med Chem, 1979):
Calls of active or inactive are those of the source. The calls are words filed in the database; no cut-off is given here.

What was measured:
[1] = test system: Plasmodium berghei; test: Antimalarial activity against Plasmodium berghei KBG 173 infected in mouse assessed as cured animal from parasite infection at 640 mg/kg; format: functional, organism-based; set-up: dose 640 mg/kg
[2] = test system: Plasmodium berghei; test: Antimalarial activity against Plasmodium berghei KBG 173 infected in mouse assessed as increase of mean survival time at 160 mg/kg; format: functional
[3] = test system: Plasmodium berghei; test: Antimalarial activity against Plasmodium berghei KBG 173 infected in mouse assessed as cured animal from parasite infection at 160 mg/kg; format: functional, organism-based; set-up: dose 160 mg/kg
[4] = test system: Plasmodium berghei; test: Antimalarial activity against Plasmodium berghei KBG 173 infected in mouse assessed as increase of mean survival time at 640 mg/kg; format: functional
[5] = test system: Mus musculus; test: Toxicity in Plasmodium berghei KBG 173 infected mouse at 160 mg/kg; format: organism-based; set-up: dose 160 mg/kg; settings: in vivo
[6] = test system: Mus musculus; test: Toxicity in Plasmodium berghei KBG 173 infected mouse at 640 mg/kg; format: organism-based; set-up: dose 640 mg/kg; settings: in vivo
[7] = test system: Plasmodium berghei; test: Antimalarial activity against Plasmodium berghei KBG 173 infected in mouse assessed as cured animal from parasite infection at 40 mg/kg; format: functional, organism-based; set-up: dose 40 mg/kg
[8] = test system: Plasmodium berghei; test: Antimalarial activity against Plasmodium berghei KBG 173 infected in mouse assessed as increase of mean survival time at 40 mg/kg; format: functional
[9] = test system: Plasmodium berghei; test: Antimalarial activity against Plasmodium berghei KBG 173 infected in mouse assessed as cured animal from parasite infection at 320 mg/kg; format: functional, organism-based; set-up: dose 320 mg/kg
[10] = test system: Plasmodium berghei; test: Antimalarial activity against Plasmodium berghei KBG 173 infected in mouse assessed as cured animal from parasite infection at 80 mg/kg; format: functional, organism-based; set-up: dose 80 mg/kg

For `C/C(=N/NC(=S)N1CCC(C)CC1)c1ccccn1`, the Activity [1] was “Active”, the Survival [2] was 0 days and the Activity [3] was “Active”. For the same compound, the Survival [4] was 0 days, the Activity [5] was “Toxic” and the Activity [6] was “Toxic”. For the same compound, the Activity [7] was “Active”.

`C/C(=N/NC(=S)N1CCCCCCCC1)c1ccccn1` was tested, and the Activity [1] was “Active”, the Survival [2] was 1.7 days and the Survival [4] was 9 days. The Survival [8] was -0.3 days.

For `C/C(=N/NC(=S)N1CCN(c2ccc(F)cc2)CC1)c1ccccn1`, the Activity [1] was “Active”, the Activity [3] was “Active” and the Survival [4] was 9 days. The Activity [7] was “Active”.

`C/C(=N/NC(=S)N1CCCCCCC1)c1ccccn1` was tested, and the Activity [9] was “Active”, the Activity [1] was “Active” and the Activity [3] was “Active”. The Survival [8] was 0.6 days and the Activity [10] was “Active”.

With `C/C(=N/NC(=S)N(C)C1CCCCC1)c1ccccn1` the Activity [3] was “Active”, the Survival [4] was -0.3 days and the Activity [5] was “Toxic”. The Activity [6] was “Toxic” and the Survival [8] was 3.7 days.

For `C/C(=N/NC(=S)N(CC(C)C)CC(C)C)c1ccccn1`, the Survival [2] was 0.8 days, the Survival [4] was 0.5 days and the Activity [5] was “Toxic”. The Activity [6] was “Toxic” and the Survival [8] was -0.2 days.

In the case of `CCC1CCCCN1C(=S)N/N=C(/C)c1ccccn1` (stereo not given), the Activity [3] is reported as “Active”, the Survival [4] is reported as -0.2 days and the Activity [6] is reported as “Toxic”. It also gave a Survival [8] of 5.6 days.

Work on `C/C(=N/NC(=S)N1CCCCC1)c1ccccn1` yielded a Survival [2] of -0.4 days, a Survival [4] of 0 days and a Survival [8] of -0.4 days.

`C/C(=N/NC(=S)N(Cc1ccccc1)Cc1ccccc1)c1ccccn1` was tested, and the Survival [2] was 1.6 days, the Survival [4] was -0.2 days and the Activity [5] was “Toxic”. For the same compound, the Activity [6] was “Toxic” and the Survival [8] was -0.1 days.

With `C/C(=N/NC(=S)N1CCN(c2ccccn2)CC1)c1ccccn1.Cl` the Survival [4] was 0 days, the Activity [6] was “Toxic” and the Survival [8] was 3.2 days.

`C/C(=N/NC(=S)N1CCC1)c1ccccn1` was tested, and the Activity [1] was “Active”, the Survival [2] was 0 days and the Activity [3] was “Active”. For the same compound, the Survival [4] was 0 days, the Activity [5] was “Toxic” and the Activity [6] was “Toxic”. It also gave a Survival [8] of 1.7 days.

In the case of `C/C(=N/NC(=S)N1CCCC(C)C1)c1ccccn1` (stereo not given), the Activity [1] is reported as “Active”, the Activity [3] is reported as “Active” and the Survival [4] is reported as 0 days. For the same compound, the Activity [5] was “Toxic”, the Activity [6] was “Toxic” and the Survival [8] was 4.1 days.

In the case of `C/C(=N/NC(=S)N1CCCCC1C)c1ccccn1` (stereo not given), the Activity [1] is reported as “Active”, the Survival [2] is reported as 0 days and the Activity [3] is reported as “Active”. The Survival [4] was 0 days, the Activity [5] was “Toxic” and the Activity [6] was “Toxic”. For the same compound, the Activity [7] was “Active”.

`C/C(=N/NC(=S)N1CCC(c2ccccc2)CC1)c1ccccn1` was tested, and the Activity [9] was “Active”, the Activity [1] was “Active” and the Activity [3] was “Active”. The Survival [8] was 0.4 days and the Activity [10] was “Active”.

With `C/C(=N/NC(=S)N(C)CC(O)C(O)C(O)C(O)CO)c1ccccn1` (stereo not given) the Survival [2] was 1.4 days, the Survival [4] was 0.3 days and the Activity [6] was “Toxic”. For the same compound, the Survival [8] was 0.2 days.

In the case of `C/C(=N/NC(=S)N1CCc2ccccc21)c1ccccn1`, the Survival [2] is reported as 0.3 days, the Survival [4] is reported as 0.3 days and the Activity [5] is reported as “Toxic”. For the same compound, the Activity [6] was “Toxic” and the Survival [8] was 0.5 days.

In the case of `C/C(=N/NC(=S)N(C)CCc1ccccc1)c1ccccn1`, the Activity [1] is reported as “Active”, the Survival [2] is reported as 7.2 days and the Activity [3] is reported as “Active”. It also gave a Survival [8] of 0.4 days.

In the case of `C/C(=N/NC(=S)N1CCc2ccccc2C1)c1ccccn1`, the Activity [1] is reported as “Active”, the Survival [2] is reported as 7.7 days and the Activity [3] is reported as “Active”. For the same compound, the Survival [8] was 3.5 days.

`C/C(=N/NC(=S)N1CC=CCC1)c1ccccn1` was tested, and the Survival [2] was 1.4 days, the Survival [4] was 7.4 days and the Activity [5] was “Toxic”. For the same compound, the Activity [6] was “Toxic” and the Survival [8] was 4 days.

In the case of `C/C(=N/NC(=S)N1CCCCCCCCCCCC1)c1ccccn1`, the Survival [2] is reported as 0.1 days, the Survival [4] is reported as 2.9 days and the Survival [8] is reported as 0 days.
